Laboratory results taken from PMC5612656, “In vitro and in vivo effects of 2,4 diaminoquinazoline inhibitors of the decapping scavenger enzyme DcpS: Context-specific modulation of SMN transcript levels” (PLoS ONE, 2017).

Tested on: spinal cord transcriptome
Experiment: RNA-Seq of spinal cord tissue from 2B/- and 2B/+ mice
Format: in vivo, mouse
[1] = 2B+ spinal cord RNA Seq polyA, WT-RG vs. WT-Veh, adjusted p-value 1.01E-05
[2] = 2B+ spinal cord RNA Seq polyA, WT-RG vs. WT-Veh, adjusted p-value 3.86E-06

## Nc1nc(N)c2c(OCC3CCN(Cc4c(Cl)cccc4Cl)CC3)cccc2n1 [RG3039]
[1]
  log2(fold-change) 4632404H12Rik transcript: 1.233
  log2(fold-change) Ifi44 transcript: 3.126
  log2(fold-change) Snhg11 transcript: 0.9645
[2]
  log2(fold-change) Scn10a transcript: -4.931
  log2(fold-change) Tmem233 transcript: -5.091
2B-Veh vs 2B-RG3039
  log2(fold-change) 1700024P16Rik: -0.9143
  log2(fold-change) 2010001M06Rik: -0.4589
  log2(fold-change) 2810417H13Rik: 0.7557
  log2(fold-change) 2810459M11Rik: 0.8489
  log2(fold-change) 6330444E15Rik: -1.493
  log2(fold-change) 8430408G22Rik: -1.92
  log2(fold-change) A230028O05Rik: -1.123
  log2(fold-change) AI429214: -0.7864
  log2(fold-change) AW495222: -0.8389
  log2(fold-change) Abcc4: -0.4948
  log2(fold-change) Acacb: -0.9081
  log2(fold-change) Acer2: -1.144
  log2(fold-change) Ada: -2.097
  log2(fold-change) Adhfe1: -0.3934
  log2(fold-change) Adipor2: -1.046
  log2(fold-change) Adm: -0.7407
  log2(fold-change) Alox12: 1.236
  log2(fold-change) Alpl: 0.9933
  log2(fold-change) Angptl2: 0.7515
  log2(fold-change) Angptl4: -1.6266
  log2(fold-change) Apln: 0.547
  log2(fold-change) Aplnr: 1.065
  log2(fold-change) Arrdc2: -1.418
  log2(fold-change) Arrdc3: -0.727
  log2(fold-change) Aspm: 0.9497
  log2(fold-change) Aurkb: 0.7105
  log2(fold-change) BC049352: -1.185
  log2(fold-change) BC064078: -0.6877
  log2(fold-change) Barx2: 0.4279
  log2(fold-change) Bdh2: -0.7221
  log2(fold-change) Bst2: 1.093
  log2(fold-change) Btbd16: -0.8478
  log2(fold-change) Bub1b: 0.7302
  log2(fold-change) C130074G19Rik: 0.558
  log2(fold-change) C330021F23Rik: 1.369
  log2(fold-change) C430049B03Rik: 0.7515
  log2(fold-change) Casc5: 0.9628
  log2(fold-change) Ccdc150: -0.9419
  log2(fold-change) Ccna2: 0.5769
  log2(fold-change) Ccnb1: 0.5224
  log2(fold-change) Ccnb2: 0.5384
  log2(fold-change) Cd101: -0.9911
  log2(fold-change) Cd248: 0.749
  log2(fold-change) Cdk1: 0.4623
  log2(fold-change) Cdkn1a: -0.7839
  log2(fold-change) Chaf1b: 0.7063
  log2(fold-change) Chodl: 0.3892
  log2(fold-change) Col8a1: 0.5045
  log2(fold-change) Col12a1: 0.6621
  log2(fold-change) Colq: -0.452
  log2(fold-change) Crispld1: 0.7708
  log2(fold-change) Cth: -0.9118
  log2(fold-change) Cxcl12: 0.9102
  log2(fold-change) D630039A03Rik: -0.7287
  log2(fold-change) Dao: -0.6435
  log2(fold-change) Dcxr: -0.6455
  log2(fold-change) Ddit4: -0.977
  log2(fold-change) Ddo: -0.6951
  log2(fold-change) Depdc1b: 0.6712
  log2(fold-change) Dlgap5: 0.6868
  log2(fold-change) Dnah8: 0.7242
  log2(fold-change) Dtl: 0.8053
  log2(fold-change) E230015J15Rik: -1.036
  log2(fold-change) Edn1: -1.282
  log2(fold-change) Ednrb: 0.7966
  log2(fold-change) Egfl6: 0.8631
  log2(fold-change) Elf5: 0.6236
  log2(fold-change) Entpd2: 0.5977
  log2(fold-change) Espl1: 0.7643
  log2(fold-change) Etnppl: -2.764
  log2(fold-change) Ets1: 0.8775
  log2(fold-change) Fabp7: 0.8454
  log2(fold-change) Fam64a: 0.6855
  log2(fold-change) Fam107a: -1.657
  log2(fold-change) Fam214a: -0.4707
  log2(fold-change) Fam83d: -1.4639
  log2(fold-change) Fas: -0.8656
  log2(fold-change) Fgf21: -1
  log2(fold-change) Fgfr4: 1.087
  log2(fold-change) Fkbp5: -1.583
  log2(fold-change) Fli1: 0.4642
  log2(fold-change) Fzd10: 1.186
  log2(fold-change) Galnt15: -1.568
  log2(fold-change) Gatsl3: -1.006
  log2(fold-change) Gkn3: 1.302
  log2(fold-change) Glul: -0.8158
  log2(fold-change) Gm266: 0.9562
  log2(fold-change) Gm807: -1.6695
  log2(fold-change) Gm10309: -1.704
  log2(fold-change) Gm11681: -1.051
  log2(fold-change) Gm13066: -1.415
  log2(fold-change) Gm16316: -0.9137
  log2(fold-change) Gm16958: -0.6452
  log2(fold-change) Gm21984: -0.8301
  log2(fold-change) Gm26645: 0.5748
  log2(fold-change) Gp2: 1.536
  log2(fold-change) Gpr50: 0.6598
  log2(fold-change) Gpx3: -0.9006
  log2(fold-change) Gsg2: 1
  log2(fold-change) Gstm1: -0.9261
  log2(fold-change) Gsx1: 1.082
  log2(fold-change) Hbegf: 0.4821
  log2(fold-change) Heph: -0.6747
  log2(fold-change) Hes5: 1.011
  log2(fold-change) Heyl: 0.7294
  log2(fold-change) Hif3a: -1.3266
  log2(fold-change) Hist1h1c: -0.9093
  log2(fold-change) Hist1h4h: -0.4829
  log2(fold-change) Hpgd: 1.149
  log2(fold-change) Hr: -1.031
  log2(fold-change) Hsf3: -1.087
  log2(fold-change) Iapp: -0.9349
  log2(fold-change) Id3: 0.7631
  log2(fold-change) Ier5: 0.6487
  log2(fold-change) Igf1: 0.4613
  log2(fold-change) Igsf1: 0.614
  log2(fold-change) Il12rb1: -1.3
  log2(fold-change) Itga6: 0.6885
  log2(fold-change) Itgb3: 0.5631
  log2(fold-change) Kcna5: -1.0224
  log2(fold-change) Kcne4: 0.8611
  log2(fold-change) Kdelr3: 0.5886
  log2(fold-change) Kdm4dl: -1.255
  log2(fold-change) Kif2c: 0.8365
  log2(fold-change) Klf15: -1.065
  log2(fold-change) Klhl30: 0.8074
  log2(fold-change) LRRC8A: -0.627
  log2(fold-change) Loxl1: 0.7115
  log2(fold-change) Lrrc8a: -0.9652
  log2(fold-change) Map3k6: -2.942
  log2(fold-change) Matn1: -1.5615
  log2(fold-change) Mcm6: 0.8445
  log2(fold-change) Mertk: -0.6404
  log2(fold-change) Mex3a: 0.9304
  log2(fold-change) Mgmt: -0.5604
  log2(fold-change) Mki67: 0.4816
  log2(fold-change) Mmp14: 0.9436
  log2(fold-change) Mrgprd: 1.807
  log2(fold-change) Mrpl41: -1.248
  log2(fold-change) Mycn: 0.9874
  log2(fold-change) Ncan: 0.7942
  log2(fold-change) Ncapg: 0.8309
  log2(fold-change) Neil3: 0.7885
  log2(fold-change) Nes: 0.5009
  log2(fold-change) Notum: 0.8827
  log2(fold-change) Nusap1: 0.4877
  log2(fold-change) Otoa: -1.049
  log2(fold-change) Pappa: 0.5579
  log2(fold-change) Pbk: 0.5785
  log2(fold-change) Pdk4: -1.799
  log2(fold-change) Per1: -0.8684
  log2(fold-change) Phactr3: -0.7376
  log2(fold-change) Phyhd1: -0.7387
  log2(fold-change) Pilrb2: -1.585
  log2(fold-change) Pirt: 0.7729
  log2(fold-change) Pmaip1: -0.9334
  log2(fold-change) Pmp2: 1.429
  log2(fold-change) Pnpla2: -1.095
  log2(fold-change) Pnpla7: -0.626
  log2(fold-change) Polr3e: -1.443
  log2(fold-change) Ppp1r1b: -1.252
  log2(fold-change) Prc1: 0.5813
  log2(fold-change) Prodh: -0.8352
  log2(fold-change) Pxmp2: -0.9238
  log2(fold-change) Pycr1: 1.135
  log2(fold-change) Rab11fip1: -0.4528
  log2(fold-change) Rasl2-9: -0.693
  log2(fold-change) Reg3b: 1.9386
  log2(fold-change) Rnase1: -0.7662
  log2(fold-change) Rorc: -0.6702
  log2(fold-change) Rsad2: 0.8406
  log2(fold-change) Scn10a: 1.7
  log2(fold-change) Scrg1: -0.8008
  log2(fold-change) Sdpr: -0.7672
  log2(fold-change) Sds: -2.356
  log2(fold-change) Serpinb5: -1.293
  log2(fold-change) Serpinh1: 0.3762
  log2(fold-change) Sgk1: -1.812
  log2(fold-change) Shroom1: -0.6614
  log2(fold-change) Slc13a3: 0.4446
  log2(fold-change) Slc13a5: 0.8562
